From article PMC8284453 (Antimicrobial Agents and Chemotherapy, 2021)
Converted amounts (≈) assume the structure as drawn. Where two headings read alike, the source gives them in different places.

Columns and labels:
[1] = test system: Enterobacterales expressing class A carbapenemases (KPC); experiment: organism not typed; type: cell-based, K. pneumoniae, E. coli, E. cloacae, Klebsiella oxytoca
[2] = test system: Enterobacterales expressing class D oxacillinases (OXA-48/48-like); experiment: organism not typed; type: cell-based, E. coli, K. pneumoniae
[3] = test system: isogenic strains of E. coli expressing Ambler class A, B, C, and D enzymes; experiment: microbe, parasite or virus in culture; type: cell-based, Escherichia coli; details: Escherichia coli, read-out: Vector control MIC
[4] = test system: Enterobacterales expressing class C cephalosporinases
[5] = test system: strains of Enterobacterales expressing serine β-lactamases; experiment: organism not typed; type: cell-based
[6] = 25 isolates, BLI fixed at 4 μg/ml, AMC 2:1

Compound: CC1(C)S[C@@H]2[C@H](NC(=O)[C@H](N)c3ccc(O)cc3)C(=O)N2[C@H]1C(=O)O [AMX, amoxicillin]
- MIC ([1]; E. cloacae 847429 (KPC)): ≥ 64 µg/mL
- MIC ([1]; E. cloacae OIMGH49 (p99 AmpC, ACT-2, KPC-2, TEM-1)): ≥ 64 µg/mL
- MIC ([1]; E. coli 786978 (KPC)): ≥ 64 µg/mL
- MIC ([1]; K. pneumoniae 845661 (KPC)): ≥ 64 µg/mL
- MIC ([1]; K. pneumoniae 845662 (KPC)): ≥ 64 µg/mL
- MIC ([1]; K. pneumoniae 845665 (KPC)): ≥ 64 µg/mL
- MIC ([1]; K. pneumoniae 845667 (KPC)): ≥ 64 µg/mL
- MIC ([1]; K. pneumoniae 845670 (KPC)): ≥ 64 µg/mL
- MIC ([1]; K. pneumoniae 845904 (KPC)): ≥ 64 µg/mL
- MIC ([1]; K. pneumoniae 847204 (KPC)): ≥ 64 µg/mL
- MIC ([1]; K. pneumoniae 847375 (KPC)): ≥ 64 µg/mL
- MIC ([1]; K. pneumoniae 847387 (KPC)): ≥ 64 µg/mL
- MIC50 [2, 6]: ≥ 256 µg/mL
- MIC90 [2, 6]: ≥ 256 µg/mL
- MIC range [2, 6]: ≥ 256 µg/mL
- MIC ([2]; E. coli 664507 (OXA-48)): ≥ 256 µg/mL
- MIC ([2]; E. coli 664516 (OXA-48)): ≥ 256 µg/mL
- MIC ([2]; E. coli 664520 (OXA-48)): ≥ 256 µg/mL
- MIC ([2]; E. coli 664522 (OXA-48)): ≥ 256 µg/mL
- MIC ([2]; E. coli 664523 (OXA-48)): ≥ 256 µg/mL
- MIC ([2]; E. coli 664524 (OXA-48)): ≥ 256 µg/mL
- MIC ([2]; E. coli 664525 (OXA-48)): ≥ 256 µg/mL
- MIC ([2]; E. coli 664526 (OXA-48)): ≥ 256 µg/mL
- MIC ([2]; E. coli 664528 (OXA-48)): ≥ 256 µg/mL
- MIC ([2]; E. coli 787112 (OXA-48)): ≥ 256 µg/mL
- MIC ([2]; E. coli SI-422 (OXA-48)): ≥ 256 µg/mL
- MIC ([2]; E. coli VER (OXA-48)): ≥ 256 µg/mL
- MIC ([2]; K. pneumoniae 6299 (OXA-163)): ≥ 256 µg/mL
- MIC ([2]; K. pneumoniae 515746 (OXA-48), first line): ≥ 256 µg/mL
- MIC ([2]; K. pneumoniae 515746 (OXA-48), second line): ≥ 256 µg/mL
- MIC ([2]; K. pneumoniae 664438 (OXA-48)): ≥ 256 µg/mL
- MIC ([2]; K. pneumoniae 664439 (OXA-48)): ≥ 256 µg/mL
- MIC ([2]; K. pneumoniae 664509 (OXA-48)): ≥ 256 µg/mL
- MIC ([2]; K. pneumoniae 664518 (OXA-48)): ≥ 256 µg/mL
- MIC ([2]; K. pneumoniae 722870 (OXA-48)): ≥ 256 µg/mL
- MIC ([2]; K. pneumoniae BAH (OXA-204)): ≥ 256 µg/mL
- MIC ([2]; K. pneumoniae DEL (OXA-232)): ≥ 256 µg/mL
- MIC ([2]; K. pneumoniae DOV (OXA-48)): ≥ 256 µg/mL
- MIC ([2]; K. pneumoniae KIRK (OXA-162)): ≥ 256 µg/mL
- MIC ([2]; K. pneumoniae SI-C17 (OXA-48)): ≥ 256 µg/mL
- MIC [3]: 8 µg/mL (≈ 21.9 µM)
- MIC50 [4, 6]: ≥ 256 µg/mL
- MIC90 [4, 6]: ≥ 256 µg/mL
- MIC ([4]; C. freundii 134390 (AmpC, TEM-1)): ≥ 256 µg/mL
- MIC ([4]; E. aerogenes 110099 (AmpC, SHV-12)): ≥ 256 µg/mL
- MIC ([4]; E. aerogenes 111707 (AmpC, TEM-1)): ≥ 256 µg/mL
- MIC ([4]; E. aerogenes 111902 (AmpC, TEM-1)): ≥ 256 µg/mL
- MIC ([4]; E. coli 128 (AmpC, SHV-12, TEM-1, Toho-2)): 128 µg/mL (≈ 350 µM)
- MIC ([4]; E. coli 3102 (AmpC, CTX-M-15, TEM-1)): 32 µg/mL (≈ 87.6 µM)
- MIC ([4]; E. coli CH1 (AmpC, CTX-M-15, SHV-1, SHV-5, TEM-1)): ≥ 256 µg/mL
- MIC ([4]; E. coli EC469 (AmpC, SHV-12, TEM-1)): 128 µg/mL (≈ 350 µM)
- MIC ([4]; E. coli J53 (AmpC, SHV-5, TEM-1)): 128 µg/mL (≈ 350 µM)
- MIC ([4]; E. coli SI-P026TC (CMY-2, TEM-1)): ≥ 256 µg/mL
- MIC ([4]; E. coli SI-PO26 (AmpC, CMY-2, TEM-1)): ≥ 256 µg/mL
- MIC ([4]; K. pneumoniae 129032 (MOX-2, SHV-12, TEM-1)): ≥ 256 µg/mL
- MIC ([4]; K. pneumoniae 178279 (AmpC, SHV-12, TEM-1)): ≥ 256 µg/mL
- MIC ([4]; K. pneumoniae 212027 (AmpC, FOX-5, TEM-1)): ≥ 256 µg/mL
- MIC ([4]; K. pneumoniae 217917 (CMY-2, TEM-1)): ≥ 256 µg/mL
- MIC ([4]; K. pneumoniae 301313 (AmpC, SHV-12, TEM-1)): ≥ 256 µg/mL
- MIC ([4]; K. pneumoniae 398845 (CMY-2, SHV-12, TEM-1)): ≥ 256 µg/mL
- MIC ([4]; K. pneumoniae SI-F100 (CMY-2, SHV-5, TEM-1)): ≥ 256 µg/mL
- MIC ([4]; P. mirabilis SI-F014 (AmpC, TEM-72)): ≥ 256 µg/mL
- MIC ([4]; S. marcescens 132253 (AmpC, CTX-M-3, OXA-1, SHV-12, TEM-1)): ≥ 256 µg/mL
- MIC ([4]; S. marcescens 134434 (AmpC, SHV-12, TEM-1)): ≥ 256 µg/mL
- MIC ([4]; S. marcescens 142397 (AmpC, SHV-7, TEM-1)): ≥ 256 µg/mL
- MIC ([4]; S. marcescens 156212 (AmpC, SHV-12, TEM-1)): ≥ 256 µg/mL
- MIC ([4]; S. marcescens 192478 (AmpC, SHV-12, TEM-1)): ≥ 256 µg/mL
- MIC ([4]; S. marcescens 218068 (AmpC, SHV-7, TEM-1)): ≥ 256 µg/mL

Compound: CO/N=C(\C(=O)N[C@@H]1C(=O)N2C(C(=O)O)=C(/C=C\c3scnc3C)CS[C@H]12)c1csc(N)n1 [Cefditoren, cefditoren]
- MIC50 [5]: 0.5 µg/mL (≈ 0.987 µM)
- MIC90 [5]: 2 µg/mL (≈ 3.95 µM)

Compound: C=CC1=C(C(=O)O)N2C(=O)[C@@H](NC(=O)/C(=N\OCC(=O)O)c3csc(N)n3)[C@H]2SC1 [Cefixime, cefixime]
- MIC50 [5]: 0.5 µg/mL (≈ 1.1 µM)
- MIC90 [5]: 2 µg/mL (≈ 4.41 µM)
